Values belong to the molecule of their own block, whether it stands above or below them.
Legend:
[1] = target: CRBN-DDB1 protein complex (Homo sapiens, UniProt Q96SW2); test: Fluorescence polarization (FP) assay, displacement of Cy5-labelled thalidomide; conditions: 25 nM CRBN-DDB1, 5 nM Cy5-labelled thalidomide, read-out: CRBN binding Ki
Description: CRBN-DDB1 protein complex was mixed with Cy5-labelled thalidomide and a compound to be tested (the “test compound”). […] The test solution was added to a 384-well assay plate.
The plate was spun-down (1 min, 1000 rpm, 22° C.) and then shaken using a VibroTurbulator for 10 min at room temperature (20-25° C.), with the frequency set to level 3. The assay plate with protein and the tracer was incubated for 60 min at room temperature (20-25° C.) prior to read-out with a plate reader.
The FP experiment was carried out with various concentrations of the test compounds in order to measure Ki values.

IKZF3 = IKZF3 degradation assay, H929 cell line (western blot densitometry); type: cell-based; conditions: H929 cells
SALL4 = SALL4 degradation assay, Kelly cell line (western blot densitometry); type: cell-based; conditions: summary Table 10; Kelly cells, 24 H; 20 μM (some compounds 10 and 20 μM)
Excerpt: (§1) After primary and secondary Ab staining, the membranes were washed and signals developed. The densitometry analysis was implemented to obtain the numeric values used later in the protein level evaluation process.

IKZF1 = IKZF1 degradation assay, H929 cell line (western blot densitometry); type: cell-based; conditions: H929 cells; for % of protein reduction based on densitometry values, IKZF 1 (24 H): summary Table 10, 20 μM (some compounds 10 and 20 μM)
Excerpt: as §1

CK1α = CK1α degradation assay, Kelly cell line (western blot densitometry); type: cell-based; conditions: summary Table 10; Kelly cells, 24 H; 20 μM (some compounds 10 and 20 μM)
Excerpt: as §1

CRBN-DDB1 protein complex, sequence (Q96SW2 whole entry): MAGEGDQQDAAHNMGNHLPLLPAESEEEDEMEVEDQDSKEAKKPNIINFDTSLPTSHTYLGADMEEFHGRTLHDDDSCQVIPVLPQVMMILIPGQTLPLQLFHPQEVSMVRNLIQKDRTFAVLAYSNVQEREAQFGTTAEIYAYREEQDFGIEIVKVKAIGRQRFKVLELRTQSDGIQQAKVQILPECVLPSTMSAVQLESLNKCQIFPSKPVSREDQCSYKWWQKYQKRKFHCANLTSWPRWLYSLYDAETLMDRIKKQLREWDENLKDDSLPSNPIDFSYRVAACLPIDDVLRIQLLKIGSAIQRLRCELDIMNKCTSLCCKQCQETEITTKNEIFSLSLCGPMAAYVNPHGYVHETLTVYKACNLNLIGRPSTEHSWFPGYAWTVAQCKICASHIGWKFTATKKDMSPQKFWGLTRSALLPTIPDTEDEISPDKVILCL
CRBN-DDB1 protein complex, sequence (Q16531 whole entry partner): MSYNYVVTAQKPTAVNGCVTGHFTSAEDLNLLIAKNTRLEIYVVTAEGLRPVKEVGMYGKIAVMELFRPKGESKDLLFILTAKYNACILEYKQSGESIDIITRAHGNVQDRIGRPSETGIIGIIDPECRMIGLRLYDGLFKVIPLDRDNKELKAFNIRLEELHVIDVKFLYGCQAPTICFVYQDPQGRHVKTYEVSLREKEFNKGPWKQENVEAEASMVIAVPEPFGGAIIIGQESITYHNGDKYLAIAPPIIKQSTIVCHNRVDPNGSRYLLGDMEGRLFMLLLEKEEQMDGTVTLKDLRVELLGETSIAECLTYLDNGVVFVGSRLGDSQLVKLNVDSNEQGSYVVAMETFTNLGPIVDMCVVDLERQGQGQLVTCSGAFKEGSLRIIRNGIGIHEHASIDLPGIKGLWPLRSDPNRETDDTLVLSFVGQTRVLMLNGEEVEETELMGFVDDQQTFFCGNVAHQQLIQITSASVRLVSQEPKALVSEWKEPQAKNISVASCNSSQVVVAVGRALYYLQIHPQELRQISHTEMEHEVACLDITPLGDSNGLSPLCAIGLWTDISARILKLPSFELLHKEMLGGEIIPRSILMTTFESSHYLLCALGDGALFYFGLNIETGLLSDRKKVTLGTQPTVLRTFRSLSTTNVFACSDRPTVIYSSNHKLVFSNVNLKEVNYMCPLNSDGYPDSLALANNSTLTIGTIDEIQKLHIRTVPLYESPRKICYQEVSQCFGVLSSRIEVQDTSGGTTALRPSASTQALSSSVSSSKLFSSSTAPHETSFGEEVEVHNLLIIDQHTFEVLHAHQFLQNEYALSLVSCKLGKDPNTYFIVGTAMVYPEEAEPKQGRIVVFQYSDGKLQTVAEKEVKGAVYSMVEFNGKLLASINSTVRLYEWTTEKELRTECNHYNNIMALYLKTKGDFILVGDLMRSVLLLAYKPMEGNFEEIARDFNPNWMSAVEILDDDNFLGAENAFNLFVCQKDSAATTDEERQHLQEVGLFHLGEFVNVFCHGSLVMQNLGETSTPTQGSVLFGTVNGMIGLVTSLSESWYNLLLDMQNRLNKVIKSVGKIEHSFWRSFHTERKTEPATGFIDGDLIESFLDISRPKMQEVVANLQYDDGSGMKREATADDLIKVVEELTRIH

SMILES: O=C1CCC(NC(=O)c2cccc3c(Br)n[nH]c23)C(=O)N1 (stereo not drawn) [Compound 42, 3-bromo-N-(2,6-dioxopiperidin-3-yl)-1H-indazole-7-carboxamide]
- Ki [1]: 10 to 50 µM

SMILES: O=C1CCC(NC(=O)c2cccc3nnsc23)C(=O)N1 (stereo not drawn) [Compound 58]
- Ki [1]: 10 to 50 µM

SMILES: Cn1cnc2cccc(C(=O)NC3CCC(=O)NC3=O)c21 (stereo not drawn) [Compound 5, N-(2,6-dioxopiperidin-3-yl)-1-methyl-1H-benzo[d]imidazole-7-carboxamide]
- % of protein reduction based on densitometry values, SALL4 (24 H) (SALL4): ≤25% (≤25% for 0-25% of SALL4 protein reduction)
- % of protein reduction based on densitometry values, IKZF 1 (24 H) (IKZF1): ≤25% (≤25% for 0-25% of IKZF1 protein reduction)
- % of protein reduction based on densitometry values, CK1α (24 H) (CK1α): ≤25% (≤25% for 0-25% of CK1a protein reduction)

SMILES: O=C1CCC(NC(=O)c2cccc3c(-c4cccs4)n[nH]c23)C(=O)N1 (stereo not drawn) [Compound 43, N-(2,6-dioxopiperidin-3-yl)-3-(thiophen-2-yl)-1H-indazole-7-carboxamide]
- Ki [1]: 1 to 10 µM

SMILES: Cc1sc2c(c1C)C(c1ccc(Cl)cc1)=N[C@@H](CC(=O)Nc1ccc(OCCOCCOCCNC(=O)CCc3nc4c(C(=O)NC5CCC(=O)NC5=O)cccc4[nH]3)cc1)c1nnc(C)n1-2 (stereo partly drawn) [Compound 63, 2-(3-((2-(2-(2-(4-(2-((S)-4-(4-chlorophenyl)-2,3,9-trimethyl-6H-thieno[3,2-f][1,2,4]triazolo[4,3-a][1,4]diazepin-6-yl)acetamido)phenoxy)ethoxy)ethoxy)ethyl)amino)-3-oxopropyl)-N-(2,6-dioxopiperidin-3-yl)-1H-benzo[d]imidazole-7-carboxamide]
- Ki [1]: 1 to 10 µM

SMILES: Cc1nc2c(C(=O)NC3CCC(=O)NC3=O)cccc2o1 (stereo not drawn) [Compound 51, N-(2,6-dioxopiperidin-3-yl)-2-methylbenzo[d]oxazole-4-carboxamide]
- Ki [1]: 1 to 10 µM

SMILES: Cc1nc2c(C(=O)NC3CCC(=O)NC3=O)c(OCC(=O)NCCCCCCCCNC(=O)C[C@@H]3N=C(c4ccc(Cl)cc4)c4c(sc(C)c4C)-n4c(C)nnc43)ccc2[nH]1 (stereo partly drawn) [Compound 67, 6-(2-((8-(2-((S)-4-(4-chlorophenyl)-2,3,9-trimethyl-6H-thieno[3,2-f][1,2,4]triazolo[4,3-a][1,4]diazepin-6-yl)acetamido)octyl)amino)-2-oxoethoxy)-N-(2,6-dioxopiperidin-3-yl)-2-methyl-1H-benzo[d]imidazole-7-carboxamide]
- Ki [1]: 1 to 10 µM

SMILES: Cc1sc2c(c1C)C(c1ccc(Cl)cc1)=N[C@@H](CC(=O)Nc1ccc(OCCOCCOCCOCCNc3cccc4c3C(=O)N(C3CCC(=O)NC3=O)C4=O)cc1)c1nnc(C)n1-2 (stereo partly drawn) [ARV-825, reference compound]
- % of IKZF3 protein reduction based on densitometry values, IKZF3 Band I (IKZF3; 0.1 μM, 6 h): >25% (>25% for 26-74% of IKZF3 protein reduction)
- % of IKZF3 protein reduction based on densitometry values, IKZF3 Band II (IKZF3; 0.1 μM, 6 h): >25% (>25% for 26-74% of IKZF3 protein reduction)
- % of IKZF3 protein reduction based on densitometry values, IKZF3 Band I (IKZF3; 1 μM, 6 h): >25% (>25% for 26-74% of IKZF3 protein reduction)
- % of IKZF3 protein reduction based on densitometry values, IKZF3 Band II (IKZF3; 1 μM, 6 h): >25% (>25% for 26-74% of IKZF3 protein reduction)
- % of IKZF3 protein reduction based on densitometry values, IKZF3 Band I (IKZF3; 10 μM, 6 h): >25% (>25% for 26-74% of IKZF3 protein reduction)
- % of IKZF3 protein reduction based on densitometry values, IKZF3 Band II (IKZF3; 10 μM, 6 h): >25% (>25% for 26-74% of IKZF3 protein reduction)
- IKZF3 degradation (IKZF3; 6 h, 0.1-10 μM): ~60%
- % of IKZF1 α protein reduction based on densitometry values (IKZF1; 0.1 μM, 6 h): >25% (>25% for 26-74% of IKZF1 protein reduction)
- % of IKZF1 α protein reduction based on densitometry values (IKZF1; 1 μM, 6 h): >25% (>25% for 26-74% of IKZF1 protein reduction)
- % of IKZF1 α protein reduction based on densitometry values (IKZF1; 10 μM, 6 h): >25% (>25% for 26-74% of IKZF1 protein reduction)
- IKZF1 degradation (IKZF1; 6 h, 0.1-10 μM): ~50%

SMILES: O=C1CCC(NC(=O)c2cccc3[nH]c(=O)[nH]c23)C(=O)N1 (stereo not drawn) [Compound 3, N-(2,6-dioxopiperidin-3-yl)-2-oxo-2,3-dihydro-1H-benzo[d]imidazole-4-carboxamide]
- % of protein reduction based on densitometry values, SALL4 (24 H) (SALL4): ≤25% (≤25% for 0-25% of SALL4 protein reduction)
- % of protein reduction based on densitometry values, IKZF 1 (24 H) (IKZF1): ≤25% (≤25% for 0-25% of IKZF1 protein reduction)
- % of protein reduction based on densitometry values, CK1α (24 H) (CK1α): ≤25% (≤25% for 0-25% of CK1a protein reduction)

SMILES: O=C1CCC(NC(=O)c2cncc3[nH]cnc23)C(=O)N1 (stereo not drawn) [Compound 10, N-(2,6-dioxopiperidin-3-yl)-3H-imidazo[4,5-c]pyridine-7-carboxamide]
- Ki [1]: 1 to 10 µM

SMILES: O=C1CCC(NC(=O)c2csc3[nH]cnc23)C(=O)N1 (stereo not drawn) [Compound 60, N-(2,6-dioxopiperidin-3-yl)-1H-thieno[2,3-d]imidazole-6-carboxamide]
- Ki [1]: 1 to 10 µM

SMILES: O=C1CCC(NC(=O)c2cc(Br)cc3cn[nH]c23)C(=O)N1 (stereo not drawn) [Compound 47, 5-bromo-N-(2,6-dioxopiperidin-3-yl)-1H-indazole-7-carboxamide]
- Ki [1]: 1 to 10 µM

SMILES: Cc1nc2cccc(C(=O)NC3CCC(=O)NC3=O)c2o1 (stereo not drawn) [Compound 52, N-(2,6-dioxopiperidin-3-yl)-2-methylbenzo[d]oxazole-7-carboxamide]
- Ki [1]: 1 to 10 µM

SMILES: Cc1nc2cccc(C(=O)NC3CCC(=O)NC3=O)c2s1 (stereo not drawn) [Compound 53, N-(2,6-dioxopiperidin-3-yl)-2-methylbenzo[d]thiazole-7-carboxamide]
- Ki [1]: 1 to 10 µM

SMILES: Cc1cc2cccc(C(=O)NC3CCC(=O)NC3=O)c2s1 (stereo not drawn) [Compound 41, N-(2,6-dioxopiperidin-3-yl)-2-methylbenzo[b]thiophene-7-carboxamide]
- Ki [1]: 1 to 10 µM

SMILES: O=C1CCC(NC(=O)c2nccc3[nH]cnc23)C(=O)N1 (stereo not drawn) [Compound 11, N-(2,6-dioxopiperidin-3-yl)-1H-imidazo[4,5-c]pyridine-4-carboxamide]
- Ki [1]: 1 to 10 µM

SMILES: Cc1nc2c(C(=O)NC3CCCC(=O)NC3=O)cccc2[nH]1 (stereo not drawn) [Compound 20, N-(2,7-dioxoazepan-3-yl)-2-methyl-1H-benzo[d]imidazole-4-carboxamide]
- % of protein reduction based on densitometry values, SALL4 (24 H) (SALL4): ≤25% (≤25% for 0-25% of SALL4 protein reduction)
- % of protein reduction based on densitometry values, IKZF 1 (24 H) (IKZF1): ≤25% (≤25% for 0-25% of IKZF1 protein reduction)
- % of protein reduction based on densitometry values, CK1α (24 H) (CK1α): ≤25% (≤25% for 0-25% of CK1a protein reduction)

SMILES: CCCCCC(=O)Nc1cc(C(=O)NC2CCC(=O)NC2=O)c2c(c1)ncn2C (stereo not drawn) [Compound 6, N-(2,6-dioxopiperidin-3-yl)-5-hexanamido-1-methyl-1H-benzo[d]imidazole-7-carboxamide]
- % of protein reduction based on densitometry values, SALL4 (24 H) (SALL4): ≤25% (≤25% for 0-25% of SALL4 protein reduction)
- % of protein reduction based on densitometry values, IKZF 1 (24 H) (IKZF1): ≤25% (≤25% for 0-25% of IKZF1 protein reduction)
- % of protein reduction based on densitometry values, CK1α (24 H) (CK1α): ≤25% (≤25% for 0-25% of CK1a protein reduction)

Now from value to molecule, other results behind:

- Ki [1]: 1 to 10 µM
SMILES: Nc1ccc2[nH]c(C(F)(F)F)nc2c1C(=O)NC1CCC(=O)NC1=O (stereo not drawn) [Compound 26, 6-amino-N-(2,6-dioxopiperidin-3-yl)-2-(trifluoromethyl)-1H-1,3-benzodiazole-7-carboxamide]

- Ki [1]: < 1 µM
SMILES: O=C1CCC(NC(=O)c2cccc3[nH]c(Cl)nc23)C(=O)N1 (stereo not drawn) [Compound 12, 2-chloro-N-(2,6-dioxopiperidin-3-yl)-1H-benzo[d]imidazole-4-carboxamide]

- Ki [1]: 1 to 10 µM
SMILES: O=C1CCC(NC(=O)c2cccc3nc[nH]c23)C(=O)N1 (stereo not drawn) [Compound 2, N-(2,6-dioxopiperidin-3-yl)-1H-1,3-benzodiazole-7-carboxamide]

- Ki [1]: 1 to 10 µM
SMILES: O=C1CCC(NC(=O)c2ccnc3scnc23)C(=O)N1 (stereo not drawn) [Compound 54, N-(2,6-dioxopiperidin-3-yl)thiazolo[5,4-b]pyridine-7-carboxamide]

- Ki [1]: 1 to 10 µM
SMILES: O=C1CCC(NC(=O)c2ccnc3[nH]cnc23)C(=O)N1 (stereo not drawn) [Compound 9, N-(2,6-dioxopiperidin-3-yl)-3H-imidazo[4,5-b]pyridine-7-carboxamide]

- Ki [1]: 1 to 10 µM
SMILES: Nc1ccc2cn[nH]c2c1C(=O)NC1CCC(=O)NC1=O (stereo not drawn) [Compound 48, 6-amino-N-(2,6-dioxopiperidin-3-yl)-1H-indazole-7-carboxamide]

- Ki [1]: 1 to 10 µM
SMILES: O=C1CCC(NC(=O)c2cccc3[nH]nnc23)C(=O)N1 (stereo not drawn) [Compound 55, N-(2,6-dioxopiperidin-3-yl)-1H-benzo[d][1,2,3]triazole-4-carboxamide]
- % of IKZF3 protein reduction based on densitometry values, IKZF3 Band I (IKZF3; 10 μM, 24 h): ≤25% (≤25% for 0-25% of IKZF3 protein reduction)
- % of IKZF3 protein reduction based on densitometry values, IKZF3 Band II (IKZF3; 10 μM, 24 h): ≤25% (≤25% for 0-25% of IKZF3 protein reduction)
- % of IKZF3 protein reduction based on densitometry values, IKZF3 Band I (IKZF3; 20 μM, 24 h): ≤25% (≤25% for 0-25% of IKZF3 protein reduction)
- % of IKZF3 protein reduction based on densitometry values, IKZF3 Band II (IKZF3; 20 μM, 24 h): ≤25% (≤25% for 0-25% of IKZF3 protein reduction)

- Ki [1]: < 1 µM
SMILES: N#Cc1nc2c(C(=O)NC3CCC(=O)NC3=O)cccc2[nH]1 (stereo not drawn) [Compound 22, 2-cyano-N-(2,6-dioxopiperidin-3-yl)-1H-benzo[d]imidazole-4-carboxamide]

— US20240343706A1, “PIPERIDINE-2,6-DIONE DERIVATIVES WHICH BIND TO CEREBLON, AND METHODS OF USE THEREOF” (Captor Therapeutics S.A., priority 2019, published 2024)
